Assay results as given in article PMC9050848, “Carbamoyl-N-aryl-imine-urea: a new framework to obtain a putative leishmanicidal drug-candidate” (RSC Advances, 2020).

Columns and labels:
[1] = system: J774.A1 cell lines (macrophages); assay: Cytotoxicity against J774.A1 macrophages, MTT assay; format: cell-based, murine (BALB/c); details: Mus musculus, J774.A1, 48 h, read-out: IC50 (concentration required to give 50% death of cells)
Protocol: Initially the cytotoxic profile of compounds 9a–e and 10a–e against J774.A1 cell lines (i.e., BALB/c macrophage cell lines) was investigated. Therefore, these cells were exposed to different concentrations (0.1–100 μM) of compounds 9a–e and 10a–e and the cytotoxic effect was measured after 48 h of drug incubation, by using MTT-based assay. The cytotoxicity was expressed as IC50 values (that means the concentration of a drug that kills half of the tested cells in culture). As depicted in Table 1, most compounds have shown low cytotoxic activity with IC50 > 100 μM.
These adherent-phenotype macrophage lines were cultured in Dulbecco's Modified Eagle's medium (DMEM, Sigma) supplemented with 10% FBS at 37 °C with 95% humidity and 5% CO2.
To evaluate the cytotoxic activity against the J774.A1 cell line, the host cells were plated in 96-well cell culture plate (flat bottom, clear, Corning) at 2 × 10^5 cells per well in complete culture medium 10% FBS at 37 °C. After 1 h wells were washed with warm Hank's Balanced Salt solution (HBSS) to remove non-adherent cells, leaving approximately 10^5 adherent macrophages. All cultures were done in DMEM complete supplemented with 10% FBS. The compounds and pentamidine were added at serial concentrations (0.1–100 μM). The cells were also cultured with medium free from compounds or vehicle (basal growth control) or in media with DMSO 0.1% (vehicle control). Positive control (dead cells) was obtained by cellular lysis with 1% of Triton 100× in DMEM complete (because it is a detergent in this concentration, Triton 100× destabilizes the cell membrane of macrophages, causing cell death). The cytotoxicity was evaluated by the MTT assay.[31] This assay consists of indirectly measuring cell viability through the mitochondrial enzymatic activity of macrophages. Viable cells are capable of reducing MTT to formazan. For this, after the incubation of plate for 48 h, 100 μL of MTT solution (0.5 mg mL^−1, in DMEM medium) was added per well, and the plate was incubated for 1 h. Then, the supernatant of each well was retired and was added 150 μL of DMSO. The absorbance was determined at 570 nm in a microplate reader. The cell viability of the cultures treated with the compounds was compared to the death pattern obtained in the control cultures. In the positive control, the cell death was confirmed when the optical density was equal to zero, confirming that the cells were not viable. Data obtained from experiments were expressed as the mean ± standard error of the mean (mean ± S.E.M.) and statistical differences between the treated and the vehicle groups of experiments were evaluated by ANOVA and Dunnett hoc tests.

[2] = system: L. amazonensis intracellular amastigotes; assay: Leishmanicidal activity against intracellular amastigote forms of L. amazonensis in J774.A1 macrophages; format: cell-based
Protocol: Considering that L. amazonensis is one of the causative species of cutaneous leishmaniasis in Brazil,[20] we have investigated the leishmanicidal effect of compounds 9a–e and 10a–e against L. amazonensis amastigotes forms. Initially, all compounds were evaluated at 30 μM. […] Then, they were selected to determine their IC50 value for intracellular amastigote forms of L. amazonensis.
Promastigotes of L. amazonensis (MHOM/BR/77/LTB0016) were obtained from Dr Eduardo Caio Torres dos Santos at Oswaldo Cruz Institute – Fiocruz. Promastigotes of L. braziliensis (MHOM/BR/01/BA788) were obtained from Dr Valéria de Matos Borges at Gonçalo Moniz Research Center – Fiocruz. The parasites were maintained in vitro in Schneider's medium, supplemented with 10% FBS and 2% human urine at 27 °C in BOD incubator.
Initially, compounds 9a–e and 10a–e were evaluated at screening concentration of 30 μM against L. amazonensis, using DMSO 0.03% as vehicle control, since this was the DMSO concentration (vehicle) remaining in each well with the tested compounds. […] Vehicle control used was DMSO 0.1%, since this was the concentration of DMSO (vehicle) existing in each well with the tested substances in the highest concentration used.
To assess the activity of the test derivatives against the amastigote stage of L. amazonensis and L. braziliensis the model of infection in coverglass was realized.[31] The murine macrophages (J774.A1 cell line) were prepared in 24-well cell culture plate (flat bottom, clear, Corning) at 2 × 10^5 adherent cells per well, infected with 2 × 10^6 promastigotes in glass coverslips placed inside 1 mL medium culture. The cultures were cultured or not with the test derivatives or reference drugs, and kept for 24 h at 37 °C, 5% CO2. After 24 h of incubation, the coverslips were washed, stained with Giemsa–May–Grünwald, and intracellular amastigotes were counted in 100 macrophages, using an optical microscope, on the objective of 100×. Thus, during the counting of 100 macrophages, the amount of amastigotes present within these defence cells was also determined. Data obtained from in vitro experiments were expressed as the mean ± S.E.M. of duplicate cultures of representative assays. Statistical differences between the treated and the control groups were evaluated by ANOVA and Dunnett hoc tests. Differences with a p value < 0.05 or lower were considered significant.

L. amazonensis = assay: Murine model of cutaneous leishmaniasis induced by L. amazonensis (efficacy); format: in vivo, BALB/c mice; details: 30 μmol per kg per day × 28 days
Protocol: So, BALB/c mice infected with L. amazonensis were treated during 28 days with compound 10e (30 μmol per kg per day, i.p.) or with the standards miltefosine (30 μmol per kg per day, p.o.) and meglumine antimoniate (30 μmol per kg per day, i.p.).
This study (protocol number 2013.02) was approved by the Ethics Committee for Animal Experimentation of the Federal University of Alagoas (Brazil). All animals received humane care in compliance with the ‘Principles of laboratory animal care’ formulated by the National Society for Medical Research and the ‘Guide for the care and use of laboratory animals’ prepared by the National Academy of Sciences (Washington, DC). Then, 1 × 10^5 stationary promastigotes (5 days of culture in Schneider's medium) of L. amazonensis were inoculated subcutaneously into the right ear dermis of 6 week-old female BALB/c mice weighing ca. 20 g. and later treated with 10e (i.p.), miltefosine (p.o.) or meglumine antimoniate (i.p.) at 30 μmol kg^−1 × 28 days. The vehicle to solubilize 10e (LASSBio-1736) and standard drugs was Tween 20 (50 μL) and sterile water for injection, which was also administrated by i.p. route in two controls groups (non-infected control and infected control). The lesion size was measured using a paquimeter.[32] The parasite loads of infected ears and draining lymph nodes were determined using a quantitative limiting-dilution assay.[33] Toxicity was also evaluated due to alterations on spleen weight and by biochemistry dosages in plasma, performed according to the manufacturer's instructions (Doles, BRA). Data obtained from experiments were expressed as the mean ± S.E.M. and statistical differences between the treated and the vehicle groups of experiments were evaluated by ANOVA and Dunnett hoc tests.

[3] = L. amazonensis amastigotes, ratio of IC50 values

O=C(N/N=C/c1ccc(C(F)(F)F)cc1)NNC(=O)c1ccc(Cl)cc1Cl [LASSBio-1736 (10e), 2,4-dichloro-phenylcarbamoyl-N-4-trifluoromethylphenylimine-urea]
IC50 [1]: > 100 µM
Times less potent than miltefosine [2, 3]: ~4.0 times
Times less potent than pentamidine [2, 3]: about 2.5 times
Effect on the number of intracellular amastigotes ([2]; L. amazonensis, screening concentration 30 μM): decreased the number of intracellular amastigotes
IC50 ([2]; Leishmania amazonensis, J774.A1, 24 h, read-out: IC50 (concentration required to give 50% death of parasites)): 84 ± 0.3 µM
Emax ([2]; Leishmania amazonensis, J774.A1, L. amazonensis intracellular amastigotes, maximum toxicity vs 0.1% DMSO group, read-out: Maximum effect (% ± S.E.M.)): 57.6 ± 0.2%
Appearance of lesions on the first day after end of treatment (photographs) (L. amazonensis): complete healing of the nodules and ulcers
Lesion sizes of infected ear (L. amazonensis; 10e and meglumine antimoniate i.p., miltefosine p.o.): reduced the lesion sizes of infected ear like miltefosine
L. amazonensis titer in draining lymph node (L. amazonensis; limiting-dilution assay): not reduced the L. amazonensis titer in draining lymph node
Parasite load in infected ear (L. amazonensis; limiting-dilution assay): decreased parasite load in infected ear
